Test results reported in article PMC11345829, “Discovery of Potent Isoquinolinequinone N-Oxides to Overcome Cancer Multidrug Resistance” (Journal of Medicinal Chemistry, 2024).

Assays:
NCI-ADR/RES = tested on: NCI-ADR/RES; set-up: method as in PMID 31894828; details: MDR cell line, high P-gp; read-out: growth inhibition (GI50) NCI/ADR-RES; cited from earlier work
MCF12A = test: SRB cytotoxicity assay, nontumorigenic breast cells; assay type: cell-based, human; details: 48 h at GI50 concentration obtained on NCI-H460 cells
Procedure: Selectivity over nontumorigenic cells is a key requirement in cancer therapy so the cytotoxicity of 25 against nontumorigenic lung fibroblast (MRC-5) and breast cell lines (MCF12A) was evaluated with the SRB assay.
Compound 25 was also tested on the nontumorigenic MCF-12A human breast epithelial cell line. […] Following this treatment, the SRB assay was performed as described above.
S3.5 Effect of 25 on the non-tumorigenic MCF12A cell line (Figure S66)
Figure S66 Cytotoxic effect of compound 25 on the non-tumorigenic MCF12A cell line, analysed by the
obtained in the NCI-H460 and NCI-H460/R pair of counterpart cell lines. Results are presented as the
% of cell growth relative to the control cells (treated with the compound vehicle, DMSO at the % used
Data are expressed as mean ± SEM from 3 independent experiments.
(1 picture or pasted object on this page, not shown here)

[1] = target: T1, P-gp mediated drug efflux in NCI-H460/R cells (Homo sapiens, UniProt P08183); test: Rhodamine-123 accumulation (drug efflux) assay; assay type: cell-based; details: 1 h, 10 or 20 μM
T1 construct: these cells overexpress the MDR1 gene which encodes for P-gp; endogenous in cells; host or cells: NCI-H460/R (doxorubicin-selected MDR human NSCLC cells)
Procedure: Figure 11 Relative rhodamine-123 accumulation in NCI-H460 or in NCI-H460/R cells following treatment with compound 25, evaluated by flow cytometry (rhodamine-123 efflux assay). Cells were incubated for 1 h with medium, DMSO (vehicle at the % used in the highest tested concentration of 25), verapamil (positive control), or compound 25 at two different concentrations (10 and 20 μM). Verapamil (20 μM) was used as a positive control (P-gp inhibitor). Results are the mean ± SEM of at least 3 independent experiments. * p ≤ 0.05, when comparing vehicle (DMSO) vs compound treatment in NCI-H460/R cells.
The NSCLC cells (1.5 × 10^5 cells/mL) were incubated for 1 h at 37 °C in the presence of 10 μM or 20 μM of compound 25 and with 1 μM of rhodamine-123 (Sigma-Aldrich). NCI-H460 cells without treatment were used as a negative control and NCI-H460/R cells treated with verapamil (a known P-gp inhibitor) at concentrations of 10 and 20 μM were used as a positive controls.[80],[81] After the incubation time, cells were washed in cold PBS and kept at 4 °C, protected from light until analysis in the flow cytometer. At least 10 000 cells per sample were acquired and analyzed on the BD Accuri C6 flow cytometer.

NCI-H460/R spheroids = test: Cell Titer-Glo 3D spheroid viability assay; assay type: cell-based, human; details: 48 h; 25 at 0.35 and 0.7 μM; etoposide 2 μM
Procedure: Results are presented as the % of luciferase luminescence relative to the “blank” cells (medium).
Spheroid formation was conducted in 12-series agarose 3D Petri Dish micromolds (MicroTissues Technology, MicroTissues Inc., Sigma-Aldrich). The agarose micromolds were prepared using 1% agarose in a 0.9% NaCl solution and then placed in 12-well plates and equilibrated with RPMI supplemented with 10% FBS for at least 2 h before cell seeding. Cell suspensions corresponding to 500 cells per spheroid of the NSCLC cell lines (NCI-H460 and NCI-H460/R), and 1000 cells per spheroid of the colorectal cancer cell lines (DLD1 and DLD1-TxR) were seeded in the corresponding micromolds. […] Spheroid formation was monitored with the Leica DMi1 microscope. […] At the end of the treatment, images from at least 8 different spheroids per condition were captured on the Leica Dmi1 microscope, and posteriorly analyzed with the automated open-source software AnaSP.[82] Spheroid parameters, such as equivalent diameter, circularity, and compactness, were calculated.
Spheroid viability was determined through the luminescence-based Cell Titer-Glo 3D cell viability assay (Promega). […] The plate was then incubated in the dark for 5 min with agitation and allowed to rest for 25 min before luminescence measurement. Luminescence was quantified using the microplate reader Synergy MX coupled with the GEN5 software. […]

NCI-H460 cells [2] = test: Alkaline Comet assay (DNA damage); assay type: cell-based, human; details: 48 h; 2 × GI50; preliminary, data not shown
Procedure: Hydrogen peroxide (Sigma-Aldrich) was used as a positive control (50 μM). Harvested cells were resuspended in 0.5% low melting point agarose (Thermo Fisher Scientific) and poured onto slides precoated with 1% normal melting point agarose (Sigma-Aldrich). Cells were then lysed with ice-cold lysis buffer [100 mM Na2EDTA (Sigma-Aldrich), […] (Sigma-Aldrich), 10 mM Tris-Base (Sigma-Aldrich), pH 10.0, 1% and Triton X-100 (Sigma-Aldrich)) for 2 h in the dark at 4 °C. Then, after two washes with distilled water, slides were placed on an electrophoresis tank filled with electrophoresis buffer [300 mM NaOH (Sigma-Aldrich), 1 mM Na2EDTA; pH 13.0] and incubated for 40 min to allow DNA to unwind. Electrophoresis was carried out for 20 min at 32 V. Then slides were immersed twice in pure ethanol and allowed to dry at RT. Slides were stained with SyberGold staining solution (Invitrogen) in Tris-EDTA buffer [10 mM Tris-HCl (Sigma-Aldrich) and 1 mM EDTA (Sigma-Aldrich); pH 7.5] for 30 min with agitation and protected from light. In the end, slides washed and dried were visualized on a Zeiss Axio Imager Z1 microscope, equipped with the Axiovision 4.9 software.

NCI-H322 = test: NCI60 five-dose GI50 (NCI data); assay type: cell-based; details: Homo sapiens, SI Table S20
Source text: The concentration−response curve generated enables the determination of three criteria, GI50 (drug concentration at which 50% of cell growth is inhibited), total growth inhibition (TGI) and LC50 (drug concentration at which 50% of tumor cells are killed) which can be used to compare effectiveness against any compound tested in the screen since its inception.
S2.1 NCI Screening Assay Experimental details
NCI Screening Assay Experimental: Cancer cell growth assays (NCI60 screening) 5,6 One-dose study: Tested compounds were initially solubilised in DMSO, diluted into RPMI 1640 and 5% fetal bovine serum/L-glutamine, and added to 96-well plates containing cell lines previously cultured for 24 h. After 48 h incubation, the media were removed, and the cells were fixed and stained with sulforhodamine B to determine overall percent growth/ total protein content. Unbound dye was removed with five washes of 1% acetic acid, and the plates were allowed to air dry. The dye was then resolubilised in Tris buffer, and the colorimetric absorbance was measured (515 nm). Growth inhibition was measured relative to the response generated from proliferating cells cultured under identical conditions for 48 h. Data from one-dose experiments pertains to the percentage growth at […]
Five-dose study: Serial 5 × 10-fold dilution from an initial DMSO stock solution was performed, prior to incubation at each individual concentration (10 nM, 100 nM, 1 μM, 10 μM and 100 μM). Using seven absorbance measurements (time zero (Tz), control growth (C), and test growth in the presence of drug at the five concentration levels (Ti)), the percentage growth was calculated at each of the drug concentrations levels. Percentage growth inhibition was calculated as: [(Ti − Tz)/(C − Tz)] × 100 for concentrations for which Ti ≥ Tz, [(Ti − Tz)/Tz] × 100 for concentrations for which Ti < Tz. Three dose response parameters were calculated for each experimental agent. […]
was calculated from [(Ti − Tz)/(C − Tz)] × 100 = 50, which is the drug concentration resulting in a 50% reduction in the net protein increase (as measured by sulforhodamine B staining) in control cells during the drug incubation. The drug concentration resulting in total growth inhibition (TGI) was calculated from Ti = Tz. The LC50 (concentration of drug resulting in a 50% reduction in the measured protein at the end of the drug treatment as compared to that at the beginning) indicating a net loss of cells following treatment was calculated from [(Ti − Tz)/Tz] × 100 = −50. Values were calculated for each of these three parameters if the level of activity was reached; however, if the effect was not reached or was exceeded, the value for that parameter was expressed as greater or less than the maximum or minimum concentration tested.

NCI-H460 cells [3] = tested on: NCI-H460 cells; set-up: method as in PMID 34915071; details: cited from earlier work

T1 sequence (P08183 whole entry): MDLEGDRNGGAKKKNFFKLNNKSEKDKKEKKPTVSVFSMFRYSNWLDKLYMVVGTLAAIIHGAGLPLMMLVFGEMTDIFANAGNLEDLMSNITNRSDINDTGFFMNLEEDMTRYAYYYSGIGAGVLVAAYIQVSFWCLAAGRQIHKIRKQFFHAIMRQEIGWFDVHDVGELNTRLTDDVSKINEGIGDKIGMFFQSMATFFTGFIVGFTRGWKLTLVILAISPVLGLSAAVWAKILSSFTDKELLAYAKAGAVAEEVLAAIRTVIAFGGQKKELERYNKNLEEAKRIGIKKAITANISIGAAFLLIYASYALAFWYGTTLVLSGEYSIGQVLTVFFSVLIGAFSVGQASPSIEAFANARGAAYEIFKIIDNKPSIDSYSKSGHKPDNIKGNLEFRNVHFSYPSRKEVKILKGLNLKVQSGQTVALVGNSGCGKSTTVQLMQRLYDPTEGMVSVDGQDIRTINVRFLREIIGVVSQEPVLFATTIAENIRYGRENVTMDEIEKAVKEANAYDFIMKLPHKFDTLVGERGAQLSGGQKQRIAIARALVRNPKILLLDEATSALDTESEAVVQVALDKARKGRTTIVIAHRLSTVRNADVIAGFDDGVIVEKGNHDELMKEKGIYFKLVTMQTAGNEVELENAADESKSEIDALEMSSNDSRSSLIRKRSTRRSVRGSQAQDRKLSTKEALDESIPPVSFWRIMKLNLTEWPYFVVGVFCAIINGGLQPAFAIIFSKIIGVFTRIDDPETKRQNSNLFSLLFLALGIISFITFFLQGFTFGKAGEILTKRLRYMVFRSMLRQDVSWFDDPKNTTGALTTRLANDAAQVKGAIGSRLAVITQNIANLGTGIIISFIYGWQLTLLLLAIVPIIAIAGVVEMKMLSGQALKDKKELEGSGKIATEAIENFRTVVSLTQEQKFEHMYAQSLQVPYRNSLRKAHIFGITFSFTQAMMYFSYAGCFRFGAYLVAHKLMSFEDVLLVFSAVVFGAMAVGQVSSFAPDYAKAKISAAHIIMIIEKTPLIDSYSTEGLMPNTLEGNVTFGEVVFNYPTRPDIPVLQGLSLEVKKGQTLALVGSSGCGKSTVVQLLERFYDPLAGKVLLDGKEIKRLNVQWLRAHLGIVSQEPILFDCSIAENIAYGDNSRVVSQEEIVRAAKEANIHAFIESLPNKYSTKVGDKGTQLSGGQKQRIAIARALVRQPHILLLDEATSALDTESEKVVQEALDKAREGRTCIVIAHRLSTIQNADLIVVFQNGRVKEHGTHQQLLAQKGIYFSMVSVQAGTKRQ

COC(=O)c1c2c(c(C)[n+]([O-])c1C)C(=O)C=C(NCc1ccccc1)C2=O [Compound 2]
GI50 (NCI-ADR/RES): 535 nM

COC(=O)c1c2c(c[n+]([O-])c1C)C(=O)C=C(NCc1ccccc1)C2=O [Compound 25]
effect on MCF12A growth (MCF12A): did not cause significant alterations in the growth of these nontumorigenic cells
rhodamine-123 accumulation [1]: caused rhodamine accumulation within the cells, in a similar extent to the positive control verapamil
viability of NCI-H460/R spheroids (NCI-H460/R spheroids): significant decrease in the viability of the spheroids
DNA damage (NCI-H460 cells [2]): did not increase DNA damage
GI50 (NCI-H322): 174 nM

COc1cccc2c1C(=O)c1c(O)c3c(c(O)c1C2=O)C[C@@](O)(C(=O)CO)C[C@@H]3O[C@H]1C[C@H](N)[C@H](O)[C@H](C)O1 [doxorubicin, reference compound]
concentration reducing viability of NCI-H460 cells in 2D models (NCI-H460 cells [3]): 0.1 µM
